≈ marks a conversion by molar mass, not a printed value.
system: Mycobacterium tuberculosis; assay: Antitubercular activity against rifampicin and isoniazid-resistant Mycobacterium tuberculosis isolate 2199 after 24 hrs by microplate alamar blue assay; type: functional; settings: isolate 2199, 24 h

Row | Structure (SMILES) | MIC
1 | CSCCC(NC(=O)NC(Cc1c[nH]c2ccccc12)C(=O)O)C(=O)NC(C(=O)N/C=C1\C[C@@H](O)[C@H](n2ccc(=O)[nH]c2=O)O1)C(C)N(C)C(=O)C(Cc1cccc(O)c1)NC(C)C (some centres undefined) | 8 µg/mL (≈ 8.83 µM)
2 | NNC(=O)c1ccncc1 [ISONIAZID] | 40 µg/mL (≈ 292 µM)
3 | CO[C@H]1/C=C/O[C@@]2(C)Oc3c(C)c(O)c4c(O)c(c(/C=N/N5CCN(C)CC5)c(O)c4c3C2=O)NC(=O)/C(C)=C\C=C\[C@H](C)[C@H](O)[C@@H](C)[C@@H](O)[C@@H](C)[C@H](OC(C)=O)[C@@H]1C [RIFAMPIN] | 20 µg/mL (≈ 24.3 µM)
4 | CSCCC(NC(=O)NC(Cc1c[nH]c2ccccc12)C(=O)O)C(=O)NC(C(=O)N/C=C1\C[C@@H](O)[C@H](n2ccc(=O)[nH]c2=O)O1)C(C)N(C)C(=O)C(N)Cc1cccc(O)c1 (some centres undefined) [SANSANMYCIN A] | 32 µg/mL (≈ 37 µM)

— ChEMBL document CHEMBL1909588, “Synthesis and in vitro antitubercular evaluation of novel sansanmycin derivatives” (2011)
